Assay results: US10125098B2, “Therapeutic compounds and methods of use thereof” (GENENTECH, INC., priority 2014, dated 2018)
Where a name gives a salt, the structure may show the parent alone.

Target: T1, hNav1.7 (Homo sapiens, UniProt Q15858)
T1 construct: expressed in transfected cells
Experiment: Tritiated compound binding (LBA) to membranes from cells expressing hNav1.7 and the β1 subunit, competitive binding
Conditions: competitive binding vs 100 pM [3H]compound, 18 h, room temperature, membranes with hNav1.7 and β1 subunit
Procedure: Tritiated Compound Binding to Membranes
Isolated from Cells that Heterologously Express hNav1.7 and the β1 Subunit
Preparation of membranes containing recombinantly expressed sodium channels: Frozen recombinant cell pellets were thawed on ice and diluted to 4 times the cell pellet weight with ice cold 50 mM Tris HCl, pH 7.4 buffer. The cell suspensions were homogenized on ice using a motorized glass dounce homogeniser. […] The supernatants were collected and centrifuged at 10000×g at 4° C. for 50 min. The pellets were then re-suspended in 100 mM NaCl, 20 mM Tris HCl, pH 7.4 buffer containing 1% v/v protease inhibitors (Calbiochem) and re-homogenized on ice. The homogenized membranes were then processed through a syringe equipped with a 26 gauge needle. Protein concentrations were determined by Bradford Assay and the membranes were stored at −80° C.
Saturation experiments. A representative compound of formula (I) having a methyl group was tritiated. Three tritiums were incorporated in place of methyl hydrogens to generate [^3H]compound. Binding of this radioligand was performed in 5 mL borosilicate glass test tubes at room temperature. Binding was initiated by adding membranes to increasing concentrations of [^3H]compound in 100 mM NaCl, 20 mM Tris HCl, pH 7.4 buffer containing 0.01% w/v bovine serum albumin (BSA) for 18 h. Non-specific binding was determined in the presence of 1 μM unlabeled compound. After 18 h, the reactants were filtered through GF/C glass fiber filters presoaked in 0.5% w/v polyethylene imine. […] [^3H]compound bound to filters was quantified by liquid scintillation counting.
Binding reactions were performed in 96-well polypropylene plates at room temperature for 18 h. In 360 μL, membranes were incubated with 100 pM [^3H]compound and increasing concentrations of Test Compound. Non-specific binding was defined in the presence of 1 μM unlabeled compound. Reactions were transferred and filtered through 96-well glass fiber/C filter plates presoaked with 0.5% polyethylene imine. […] Bound radioactivity was determined by liquid scintillation counting.
Data Analysis: For saturation experiments, non-specific binding was subtracted from total binding to provide specific binding and these values were recalculated in terms of pmol ligand bound per mg protein. Saturation curves were constructed and dissociation constants were calculated using the single site ligand binding model: Beq=(Bmax*X)/(X+Kd), where Beq is the amount of ligand bound at equilibrium, Bmax is the maximum receptor density, Kd is the dissociation constant for the ligand, and X is the free ligand concentration. For competition studies percent inhibition was determined and IC50 values were calculated using a 4 parameter logistic model (% inhibition=(A+((B−A)/(1+((x/C)^D)))) using XLfit, where A and B are the maximal and minimum inhibition respectively, C is the IC50 concentration and D is the (Hill) slope.

T1 sequence (Q15858 1-1977 isoform Q15858-3): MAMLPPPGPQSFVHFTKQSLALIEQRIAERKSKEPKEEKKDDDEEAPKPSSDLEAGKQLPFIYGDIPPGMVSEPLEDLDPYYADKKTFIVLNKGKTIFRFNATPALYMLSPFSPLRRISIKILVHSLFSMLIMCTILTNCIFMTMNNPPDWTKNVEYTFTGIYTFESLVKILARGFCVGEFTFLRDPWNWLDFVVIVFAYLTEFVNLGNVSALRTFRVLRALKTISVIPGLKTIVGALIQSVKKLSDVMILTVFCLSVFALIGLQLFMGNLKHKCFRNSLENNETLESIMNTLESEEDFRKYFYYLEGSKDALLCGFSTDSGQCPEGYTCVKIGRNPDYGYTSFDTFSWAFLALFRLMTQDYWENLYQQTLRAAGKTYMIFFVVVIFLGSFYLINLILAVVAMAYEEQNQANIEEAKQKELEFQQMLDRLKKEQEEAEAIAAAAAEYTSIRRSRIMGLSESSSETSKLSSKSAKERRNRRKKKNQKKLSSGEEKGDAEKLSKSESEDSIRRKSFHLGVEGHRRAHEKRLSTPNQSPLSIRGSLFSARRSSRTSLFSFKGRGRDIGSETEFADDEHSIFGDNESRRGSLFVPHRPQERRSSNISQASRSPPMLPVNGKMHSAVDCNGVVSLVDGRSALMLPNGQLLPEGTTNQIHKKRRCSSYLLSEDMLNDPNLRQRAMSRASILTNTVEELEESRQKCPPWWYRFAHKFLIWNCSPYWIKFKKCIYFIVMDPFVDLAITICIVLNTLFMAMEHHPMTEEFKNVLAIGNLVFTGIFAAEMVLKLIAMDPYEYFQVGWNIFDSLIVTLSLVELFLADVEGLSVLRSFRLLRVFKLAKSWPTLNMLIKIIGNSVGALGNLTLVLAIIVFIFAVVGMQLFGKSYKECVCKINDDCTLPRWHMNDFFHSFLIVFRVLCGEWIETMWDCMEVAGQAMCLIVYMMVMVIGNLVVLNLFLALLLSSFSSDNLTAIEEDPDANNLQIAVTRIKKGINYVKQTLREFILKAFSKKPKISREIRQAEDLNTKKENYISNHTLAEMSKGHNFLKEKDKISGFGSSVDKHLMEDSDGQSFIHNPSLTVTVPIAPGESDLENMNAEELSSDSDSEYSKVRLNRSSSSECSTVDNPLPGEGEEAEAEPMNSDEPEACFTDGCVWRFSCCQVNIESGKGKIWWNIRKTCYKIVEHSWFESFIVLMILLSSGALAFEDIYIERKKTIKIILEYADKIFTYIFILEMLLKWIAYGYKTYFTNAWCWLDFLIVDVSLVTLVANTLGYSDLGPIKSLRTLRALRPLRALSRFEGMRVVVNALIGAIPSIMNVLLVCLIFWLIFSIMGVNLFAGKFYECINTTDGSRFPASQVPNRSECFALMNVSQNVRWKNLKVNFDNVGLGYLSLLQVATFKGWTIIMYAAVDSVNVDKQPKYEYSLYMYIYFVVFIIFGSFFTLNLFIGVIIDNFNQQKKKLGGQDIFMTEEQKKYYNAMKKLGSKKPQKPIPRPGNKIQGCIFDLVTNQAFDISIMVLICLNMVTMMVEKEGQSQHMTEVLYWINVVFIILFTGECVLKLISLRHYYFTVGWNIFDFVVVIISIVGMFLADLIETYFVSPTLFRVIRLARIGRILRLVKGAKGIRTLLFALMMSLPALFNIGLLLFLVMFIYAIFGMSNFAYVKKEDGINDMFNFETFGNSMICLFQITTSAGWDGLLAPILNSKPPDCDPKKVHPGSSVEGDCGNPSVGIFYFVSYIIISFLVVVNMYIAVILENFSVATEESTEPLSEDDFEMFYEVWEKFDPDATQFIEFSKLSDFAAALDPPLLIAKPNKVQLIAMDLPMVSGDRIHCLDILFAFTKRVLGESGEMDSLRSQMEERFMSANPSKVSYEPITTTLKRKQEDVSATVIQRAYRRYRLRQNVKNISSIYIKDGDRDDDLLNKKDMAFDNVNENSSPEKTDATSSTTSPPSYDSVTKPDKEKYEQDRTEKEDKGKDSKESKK
T1 sequence (Q07699 19-218 partner): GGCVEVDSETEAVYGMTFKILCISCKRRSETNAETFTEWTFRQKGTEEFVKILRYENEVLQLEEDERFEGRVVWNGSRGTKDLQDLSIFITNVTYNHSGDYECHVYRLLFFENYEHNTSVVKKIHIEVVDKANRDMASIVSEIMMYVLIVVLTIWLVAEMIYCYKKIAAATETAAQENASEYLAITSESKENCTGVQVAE

| Structure (SMILES) | IC50 [nM] |
| --- | --- |
| CC(C)c1cc(C(=O)N2CCC[C@H]2C(=O)O)c(F)cc1OCC12CC3CC(CC(C3)C1)C2 [Example 17, (S)-1-(4-(adamantan-1-ylmethoxy)-2-fluoro-5-isopropylbenzoyl)pyrrolidine-2-carboxylic acid] | 87.2 |
| O=C(O)[C@@H]1CCCN1C(=O)c1cc(C2CC2)c(O[C@H]2C3CC4CC2C[C@](F)(C4)C3)cc1F [Example 18, (S)-1-(5-cyclopropyl-2-fluoro-4-(((1R,2s,3S,5R,7R)-5-fluoroadamantan-2-yl)oxy)benzoyl)pyrrolidine-2-carboxylic acid] | 4500 |
| O=C(O)[C@@H]1CCCN1C(=O)c1cc(C2CC2)c(CN2[C@@H]3CC[C@H]2C[C@@H](Oc2cc(Cl)cc(OC(F)(F)F)c2)C3)cc1F [Example 19, (S)-1-(4-(((1R,3S,5S)-3-(3-chloro-5-(trifluoromethoxy)phenoxy)-8-azabicyclo[3.2.1]octan-8-yl)methyl)-5-cyclopropyl-2-fluorobenzoyl)pyrrolidine-2-carboxylic acid trifluoroacetic acid salt] | 443 |
| O=C(O)[C@@H]1CCCN1C(=O)c1cc(C2CC2)c(CN2CCC(Oc3cc(Cl)cc(OC(F)(F)F)c3)CC2)cc1F [Example 20, (S)-1-(4-((4-(3-chloro-5-(trifluoromethoxy)phenoxy)piperidin-1-yl)methyl)-5-cyclopropyl-2-fluorobenzoyl)pyrrolidine-2-carboxylic acid trifluoroacetic acid salt] | 554 |
| CC1(COc2cc(F)c(C(=O)N3CCC[C@H]3C(=O)O)cc2C2CC2)CN(c2cc(C(F)(F)F)c(Cl)cn2)C1 [Example 21, (S)-1-(4-((1-(5-chloro-4-(trifluoromethyl)pyridin-2-yl)-3-methylazetidin-3-yl)methoxy)-5-cyclopropyl-2-fluorobenzoyl)pyrrolidine-2-carboxylic acid trifluoroacetic acid salt] | 359 |
| O=C(O)[C@@H]1CCCN1C(=O)c1cc(F)c(Oc2ccc(Cl)cc2-c2ccccc2)cc1F [Example 22, (S)-1-(4-((5-chloro-[1,1′-biphenyl]-2-yl)oxy)-2,5-difluorobenzoyl)pyrrolidine-2-carboxylic acid] | > 10000 |
| O=C(O)[C@@H]1CCCN1C(=O)c1ccc(OCC23CC4CC(CC(C4)C2)C3)c(Cl)c1 [Example 23, (S)-1-((4-(adamantan-1-ylmethoxy))-3-chlorobenzoyl)pyrrolidine-2-carboxylic acid] | 3960 |
| O=C(O)[C@@H]1CCCN1C(=O)c1cc(Cl)c(Oc2cnc(OCC(F)(F)F)c(Cl)c2)cc1F [Example 24, (S)-1-(5-chloro-4-((5-chloro-6-(2,2,2-trifluoroethoxy)pyridin-3-yl)oxy)-2-fluorobenzoyl)pyrrolidine-2-carboxylic acid trifluoroacetic acid salt] | 2730 |
| Nc1noc2ccc(-c3cc(Cl)ccc3Oc3cc(F)c(C(=O)N4CCC[C@H]4C(=O)O)cc3F)cc12 [Example 25, (S)-1-(4-(2-(3-aminobenzo[d]isoxazol-5-yl)-4-chlorophenoxy)-2,5-difluorobenzoyl)pyrrolidine-2-carboxylic acid trifluoroacetic acid] | > 10000 |
| O=C(O)[C@@H]1CCCN1C(=O)c1cc(C2CC2)c(OCC2CCN(C(c3ccccc3)c3cc(Cl)cc(Cl)c3)CC2)cc1F (stereo partly drawn) [Example 26, (2S)-1-(5-cyclopropyl-4-((1-((3,5-dichlorophenyl)(phenyl)methyl)piperidin-4-yl)methoxy)-2-fluorobenzoyl)pyrrolidine-2-carboxylic acid trifluoroacetic acid salt] | 18.1 |
| O=C(O)[C@@H]1CCCN1C(=O)c1cc(C2CCC2)c(OCC23CC4CC(CC(C4)C2)C3)cc1F [Example 27, (S)-1-(4-(adamantan-1-ylmethoxy)-5-cyclobutyl-2-fluorobenzoyl)pyrrolidine-2-carboxylic acid] | 21.7 |
